According to ChEMBL document CHEMBL1125512, “Synthesis and antiviral activity of methyl derivatives of 9-[2-(phosphonomethoxy)ethyl]guanine” (J Med Chem, 1992):

Key:
[1] = Toxicity in vitro against CEM cells by XTT assay; type: cell-based; details: human, CCRF-CEM (CEM) cells; read-out: TC50 (the source's name)
[2] = tested on: CCRF-CEM; assay: In vitro anti -HIV activity tested against CEM cells infected with HIV by XTT assay; type: functional, cell-based; details: Homo sapiens
[3] = Selectivity Index is the ratio of the TC50 to EC50; details: read-out: Selectivity index
[4] = tested on: MRC5; assay: In vitro antiherpesvirus activity against MRC-5 cells infected with HCMV (AD-169 strain); type: functional, cell-based; details: Homo sapiens
[5] = tested on: Vero; assay: In vitro antiherpesvirus activity against vero cells infected with HSV-2(G strain)[plaque reduction assay]; type: functional, cell-based; details: Chlorocebus sabaeus
[6] = tested on: CCRF-CEM; assay: In vitro CEM cell growth inhibition by measuring the number of cells after treatment for 72 hours; type: functional; details: Homo sapiens
[7] = In vitro cellular toxicity in MRC-5 cells; type: cell-based, MRC5; details: human, read-out: TC50 (the source's name)
[8] = In vitro cellular toxicity in vero cells; type: cell-based; details: read-out: TC50 (the source's name)
[9] = In vitro cellular toxicity in WI-38 cells; type: cell-based; details: human, read-out: TC50 (the source's name)

| Compound | CC50 [1] [µM] | EC50 [2] [µM] | selectivity ratio [3] | IC50 [4] [µM] | IC50 [5] [µM] | CC50 [6] [µM] | CC50 [7] [µM] | CC50 ([8]; chlorocebus sabaeus) [µM] | CC50 [9] [µM] | CC50 [8] [µM] |
| --- | --- | --- | --- | --- | --- | --- | --- | --- | --- | --- |
| Nc1ncnc2c1ncn2CCOCP(=O)(O)O [ADEFOVIR] | > 500 | 18 | > 27 | – | – | – | – | – | – | – |
| Nc1nc2c(ncn2COC(CO)CO)c(=O)[nH]1 [GANCICLOVIR] | – | – | – | 4 | – | – | – | – | – | – |
| Nc1nc2c(ncn2COCCO)c(=O)[nH]1 [ACYCLOVIR] | – | – | – | – | 1.2 | – | – | – | – | – |
| C[C@H](Cn1cnc2c(O)nc(N)nc21)OCP(=O)(O)O | > 500 | 1 | > 500 | 16 | 82 | 180 | > 330 | > 330 | – | – |
| CC(COCP(=O)(O)O)n1cnc2c(O)nc(N)nc21 (stereo not drawn) | 250 | 5 | 25 | 1.3 | 11 | – | > 300 | 200 | – | – |
| CC(C)(OCCn1cnc2c(O)nc(N)nc21)P(=O)(O)O | – | – | – | – | > 300 | – | – | > 330 | – | – |
| CC(C)(Cn1cnc2c(O)nc(N)nc21)OCP(=O)(O)O | > 100 | 2.6 | > 38 | > 300 | > 300 | – | – | – | > 330 | – |
| C[C@@H](Cn1cnc2c(O)nc(N)nc21)OCP(=O)(O)O | 300 | 12 | 25 | 16 | 43 | 12 | > 330 | > 330 | – | – |
| Nc1nc(O)c2ncn(CC(CO)OCP(=O)(O)O)c2n1 (single isomer, unassigned; form 2) | 350 | > 500 | < 1 | 0.8 | 97 | – | > 310 | > 310 | – | – |
| CC(OCCn1cnc2c(O)nc(N)nc21)P(=O)(O)O (stereo not drawn) | > 100 | > 100 | > 1 | – | 158 | – | – | > 330 | – | – |
| Cc1nc2c(O)nc(N)nc2n1CCOCP(=O)(O)O | > 100 | > 100 | > 1 | – | 172 | – | – | > 330 | – | – |
| Nc1nc2c(ncn2CC(CO)OCP(=O)(O)O)c(=O)[nH]1 (single isomer, unassigned; form 1) | > 500 | 500 | > 1 | 1.6 | 99 | – | > 310 | > 310 | – | – |
| Nc1nc2c(ncn2CCOCP(=O)(O)O)c(=O)[nH]1 [GS-438] | 15 | 0.2 | 75 | 0.09 | 1.1 | 0.2 | 30 | – | – | 17 |
